Measured values taken from paper PMC6906440, “The vertebrate Aqp14 water channel is a neuropeptide-regulated polytransporter” (Communications Biology, 2019).

Key:
Assay in all cases: radiolabelled uptake in Xenopus oocytes
Format in all cases: cell-based
[1] = biological target: T1, DrAqp14 (Danio rerio, UniProt A0A0G2L4D1); conditions: 1 mM glycerol, isotonic, pH 7.5; labelled compound; channel transport
T1 construct: full-length cDNA from brain RNA in pT7Ts; Xenopus laevis oocytes (15 ng cRNA)
T1 sequence (A0A0G2L4D1 1-277): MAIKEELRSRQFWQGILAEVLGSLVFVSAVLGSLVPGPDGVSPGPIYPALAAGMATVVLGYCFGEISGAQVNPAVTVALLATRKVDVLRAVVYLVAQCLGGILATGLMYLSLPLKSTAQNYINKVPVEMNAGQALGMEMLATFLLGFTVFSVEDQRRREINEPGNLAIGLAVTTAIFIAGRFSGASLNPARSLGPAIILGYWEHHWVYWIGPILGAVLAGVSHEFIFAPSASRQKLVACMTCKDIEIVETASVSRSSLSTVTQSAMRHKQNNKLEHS

[2] = biological target: T2, SsAqp14 (Salmo salar, UniProt A0A6B9KBC3); conditions: 1 mM glycerol, isotonic, pH 7.5; labelled compound; channel transport
T2 construct: full-length cDNA from kidney RNA in pT7Ts; Xenopus laevis oocytes (15 ng cRNA)
T2 sequence (A0A6B9KBC3 1-277): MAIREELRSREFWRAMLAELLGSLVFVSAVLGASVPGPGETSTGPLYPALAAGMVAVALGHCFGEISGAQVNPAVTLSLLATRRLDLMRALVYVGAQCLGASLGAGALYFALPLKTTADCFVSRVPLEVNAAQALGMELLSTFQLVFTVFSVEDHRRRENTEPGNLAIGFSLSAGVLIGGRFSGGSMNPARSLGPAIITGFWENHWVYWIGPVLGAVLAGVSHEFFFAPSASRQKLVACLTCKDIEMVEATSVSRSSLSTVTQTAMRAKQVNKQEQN

[3] = biological target: T3, SaAqp14 (Sparus aurata, UniProt A0A6B9KHM1); conditions: 1 mM glycerol, isotonic, pH 7.5; labelled compound; channel transport
T3 construct: full-length cDNA from brain RNA in pT7Ts; Xenopus laevis oocytes (15 ng cRNA); residues 261-276 TQNAMRAKQANKQENN
T3 sequence (A0A6B9KHM1 1-276): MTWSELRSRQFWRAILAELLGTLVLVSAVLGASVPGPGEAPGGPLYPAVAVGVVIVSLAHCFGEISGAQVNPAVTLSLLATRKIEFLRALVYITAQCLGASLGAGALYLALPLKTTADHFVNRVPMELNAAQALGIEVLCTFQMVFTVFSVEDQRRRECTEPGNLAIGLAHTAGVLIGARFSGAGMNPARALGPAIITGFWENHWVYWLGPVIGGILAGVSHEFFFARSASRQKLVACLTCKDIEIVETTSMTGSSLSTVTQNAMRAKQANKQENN

[4] = biological target: T1, DrAqp14; conditions: 1 mM urea, isotonic, pH 7.5; labelled compound; channel transport
[5] = biological target: T3, SaAqp14; conditions: 1 mM urea, isotonic, pH 7.5; labelled compound; channel transport
[6] = biological target: T2, SsAqp14; conditions: 1 mM urea, isotonic, pH 7.5; labelled compound; channel transport

Row | Compound | glycerol uptake [1] | glycerol uptake [2] | glycerol uptake [3] | urea uptake [4] | urea uptake [5] | urea uptake [6]
1 | OCC(O)CO [glycerol] | as for SaAqp14 and SsAqp14 show a lesser permeability to glycerol and methylamine | Oocytes injected with SaAqp14 and SsAqp14 are also slightly permeable to glycerol, urea | Oocytes injected with SaAqp14 and SsAqp14 are also slightly permeable to glycerol, urea | – | – | –
2 | NC(N)=O [urea] | – | – | – | oocytes expressing DrAqp14 are highly permeable to urea and hydrogen peroxide | Oocytes injected with SaAqp14 and SsAqp14 are also slightly permeable to glycerol, urea | Oocytes injected with SaAqp14 and SsAqp14 are also slightly permeable to glycerol, urea
